Data published in patent publication US12365696B2, “Small-molecule focal adhesion kinase (FAK) inhibitors” (DANA-FARBER CANCER INSTITUTE, INC., priority 2019, dated 2025).

Tests used:
MDA-MB-231 cells = test: ultra-low adherent 3D-spheroid suspension cell viability (3D Cell Titer-Glo), 120 hours; assay type: cell-based; conditions: Homo sapiens
Protocol: For ultra-low adherent 3D-spheroid suspensions, MDA-MB-231 cells were plated in 384-well format in media containing 10% Matrigel® and allowed to form spheroids overnight. Cells were treated with indicated molecules from compound stock plates using a JANUS® Workstation pin tool for 120 hours. To measure cell viability, 3D Cell Titer-Glo® was added to wells for 15 minutes at room temperature and luminescence was measured on an EnVision™ 2104 Multilabel Plate Reader.

AAK1 = AAK1 (Homo sapiens (Human), UniProt Q2M2I8); test: KINOMEscan; assay type: binding; conditions: AAK1, 10000 nM; read-out: Percent Control
ALK(L1196M) = ALK(L1196M) (Homo sapiens (Human), UniProt Q9UM73, L1196M); test: KINOMEscan; assay type: binding; conditions: 10000 nM, read-out: Percent Control
GCN2(Kin.Dom.2, S808G) = GCN2(Kin.Dom.2, S808G) (Homo sapiens (Human), UniProt Q9P2K8, S808G); test: KINOMEscan; assay type: binding; conditions: 10000 nM, read-out: Percent Control
GCN2(Kin.Dom.2, S808G), sequence (Q9P2K8 590-1001 S808G): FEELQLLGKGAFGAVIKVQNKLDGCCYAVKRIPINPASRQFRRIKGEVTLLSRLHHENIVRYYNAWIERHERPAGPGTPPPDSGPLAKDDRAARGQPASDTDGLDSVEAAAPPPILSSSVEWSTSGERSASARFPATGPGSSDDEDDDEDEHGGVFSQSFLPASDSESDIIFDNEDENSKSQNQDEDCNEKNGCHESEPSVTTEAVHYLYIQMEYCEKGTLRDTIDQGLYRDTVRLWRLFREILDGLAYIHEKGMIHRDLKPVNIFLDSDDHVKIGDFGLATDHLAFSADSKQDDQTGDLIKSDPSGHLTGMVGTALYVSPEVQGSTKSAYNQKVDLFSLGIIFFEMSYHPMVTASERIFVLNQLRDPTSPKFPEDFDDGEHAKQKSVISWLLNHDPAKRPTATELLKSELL

KIT(V559D, T670I) = KIT(V559D, T670I) (Homo sapiens (Human), UniProt P10721, T670I/V559D); test: KINOMEscan; assay type: binding; conditions: 10000 nM, read-out: Percent Control
KIT(V559D, T670I), sequence (P10721 26-976 V559D/T670I): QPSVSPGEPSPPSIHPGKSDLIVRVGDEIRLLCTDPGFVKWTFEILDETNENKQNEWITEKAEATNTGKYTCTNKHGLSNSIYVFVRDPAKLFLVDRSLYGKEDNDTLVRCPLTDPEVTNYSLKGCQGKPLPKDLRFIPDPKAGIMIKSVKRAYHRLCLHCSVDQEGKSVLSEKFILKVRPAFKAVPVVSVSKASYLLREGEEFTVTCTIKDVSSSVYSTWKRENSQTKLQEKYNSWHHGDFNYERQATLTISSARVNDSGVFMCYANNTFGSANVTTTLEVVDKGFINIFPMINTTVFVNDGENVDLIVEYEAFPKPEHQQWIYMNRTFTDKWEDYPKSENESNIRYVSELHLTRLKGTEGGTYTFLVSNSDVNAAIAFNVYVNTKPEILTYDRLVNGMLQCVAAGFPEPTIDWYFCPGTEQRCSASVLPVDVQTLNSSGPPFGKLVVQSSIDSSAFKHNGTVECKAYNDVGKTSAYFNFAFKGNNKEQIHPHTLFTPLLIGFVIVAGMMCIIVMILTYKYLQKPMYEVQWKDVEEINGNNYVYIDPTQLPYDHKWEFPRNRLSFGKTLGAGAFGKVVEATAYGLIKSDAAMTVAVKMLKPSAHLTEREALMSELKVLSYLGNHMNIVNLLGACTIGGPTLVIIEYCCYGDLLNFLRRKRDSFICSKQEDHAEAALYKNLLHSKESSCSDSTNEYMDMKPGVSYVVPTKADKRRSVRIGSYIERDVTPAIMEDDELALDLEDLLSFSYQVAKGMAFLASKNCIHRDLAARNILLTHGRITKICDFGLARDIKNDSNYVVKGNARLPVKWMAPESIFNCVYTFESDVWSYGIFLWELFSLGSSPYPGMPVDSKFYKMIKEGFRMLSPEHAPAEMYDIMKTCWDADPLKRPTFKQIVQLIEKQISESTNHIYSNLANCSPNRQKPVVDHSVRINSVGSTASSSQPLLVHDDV

LZK = LZK (Homo sapiens (Human), UniProt O43283); test: KINOMEscan; assay type: binding; conditions: 10000 nM, read-out: Percent Control
LZK, sequence (O43283 whole entry): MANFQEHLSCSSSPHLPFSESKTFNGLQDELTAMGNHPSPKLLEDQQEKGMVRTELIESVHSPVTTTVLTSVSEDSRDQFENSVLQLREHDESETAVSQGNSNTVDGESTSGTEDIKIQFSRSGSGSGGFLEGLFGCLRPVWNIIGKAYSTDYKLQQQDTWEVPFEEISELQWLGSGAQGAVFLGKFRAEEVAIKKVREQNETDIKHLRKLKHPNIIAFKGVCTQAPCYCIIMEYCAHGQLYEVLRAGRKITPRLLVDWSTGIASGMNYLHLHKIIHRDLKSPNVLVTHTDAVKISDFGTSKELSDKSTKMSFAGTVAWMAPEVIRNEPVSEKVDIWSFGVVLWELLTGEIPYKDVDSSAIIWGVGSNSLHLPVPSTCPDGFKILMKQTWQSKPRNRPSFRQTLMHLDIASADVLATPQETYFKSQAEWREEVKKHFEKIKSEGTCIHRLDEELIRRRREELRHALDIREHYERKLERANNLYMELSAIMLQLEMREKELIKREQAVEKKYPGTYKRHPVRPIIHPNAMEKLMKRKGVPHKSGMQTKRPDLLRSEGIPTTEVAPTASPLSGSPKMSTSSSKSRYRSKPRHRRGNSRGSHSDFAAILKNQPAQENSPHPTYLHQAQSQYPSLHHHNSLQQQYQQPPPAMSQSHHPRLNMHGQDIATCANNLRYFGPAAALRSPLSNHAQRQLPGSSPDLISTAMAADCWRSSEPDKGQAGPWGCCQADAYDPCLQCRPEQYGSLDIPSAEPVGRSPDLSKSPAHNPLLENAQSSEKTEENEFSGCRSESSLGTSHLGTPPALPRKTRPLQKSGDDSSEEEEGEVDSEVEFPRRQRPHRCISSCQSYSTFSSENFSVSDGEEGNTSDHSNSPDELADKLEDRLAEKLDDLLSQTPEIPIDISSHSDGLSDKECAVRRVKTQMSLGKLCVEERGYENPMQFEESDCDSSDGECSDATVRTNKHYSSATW

MET = MET (Homo sapiens (Human), UniProt P08581); test: KINOMEscan; assay type: binding; conditions: 10000 nM, read-out: Percent Control
MET, sequence (P08581 25-1390): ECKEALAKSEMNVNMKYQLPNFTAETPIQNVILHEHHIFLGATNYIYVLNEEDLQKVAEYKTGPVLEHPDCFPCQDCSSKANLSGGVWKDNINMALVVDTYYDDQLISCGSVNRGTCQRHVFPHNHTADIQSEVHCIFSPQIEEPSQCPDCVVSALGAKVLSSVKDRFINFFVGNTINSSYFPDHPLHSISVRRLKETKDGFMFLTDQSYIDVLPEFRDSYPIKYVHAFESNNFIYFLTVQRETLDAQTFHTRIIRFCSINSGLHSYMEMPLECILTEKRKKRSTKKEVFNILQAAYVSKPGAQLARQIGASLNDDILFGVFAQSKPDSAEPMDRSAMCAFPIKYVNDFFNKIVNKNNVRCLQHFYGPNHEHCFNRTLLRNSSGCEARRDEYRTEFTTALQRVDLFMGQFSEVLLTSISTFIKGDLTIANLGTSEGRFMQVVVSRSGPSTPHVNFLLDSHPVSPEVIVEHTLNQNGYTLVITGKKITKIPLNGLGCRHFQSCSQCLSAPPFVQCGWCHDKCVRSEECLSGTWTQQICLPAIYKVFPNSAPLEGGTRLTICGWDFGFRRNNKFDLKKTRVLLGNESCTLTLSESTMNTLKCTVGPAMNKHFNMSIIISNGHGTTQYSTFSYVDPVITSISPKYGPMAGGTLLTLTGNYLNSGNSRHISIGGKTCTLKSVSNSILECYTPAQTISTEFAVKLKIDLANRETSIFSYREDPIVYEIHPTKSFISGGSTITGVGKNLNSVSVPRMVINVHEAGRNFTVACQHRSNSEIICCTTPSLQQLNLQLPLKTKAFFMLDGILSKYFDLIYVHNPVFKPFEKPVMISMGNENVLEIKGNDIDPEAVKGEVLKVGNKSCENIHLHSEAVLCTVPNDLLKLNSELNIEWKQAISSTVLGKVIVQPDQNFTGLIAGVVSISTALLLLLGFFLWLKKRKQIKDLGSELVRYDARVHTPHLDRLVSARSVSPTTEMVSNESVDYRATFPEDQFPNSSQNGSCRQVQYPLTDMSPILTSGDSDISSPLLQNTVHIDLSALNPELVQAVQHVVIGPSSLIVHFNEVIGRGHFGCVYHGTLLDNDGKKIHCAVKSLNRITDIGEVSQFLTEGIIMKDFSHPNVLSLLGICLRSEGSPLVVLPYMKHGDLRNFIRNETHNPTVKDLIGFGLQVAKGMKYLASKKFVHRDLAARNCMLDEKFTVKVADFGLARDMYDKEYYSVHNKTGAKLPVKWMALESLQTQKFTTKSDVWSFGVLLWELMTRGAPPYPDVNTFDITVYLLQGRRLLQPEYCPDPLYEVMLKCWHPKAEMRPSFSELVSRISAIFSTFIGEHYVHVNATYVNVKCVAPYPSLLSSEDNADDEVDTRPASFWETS

PIP5K1A = PIP5K1A (Homo sapiens (Human), UniProt Q99755); test: KINOMEscan; assay type: binding; conditions: 10000 nM, read-out: Percent Control
PIP5K1A, sequence (Q99755 whole entry): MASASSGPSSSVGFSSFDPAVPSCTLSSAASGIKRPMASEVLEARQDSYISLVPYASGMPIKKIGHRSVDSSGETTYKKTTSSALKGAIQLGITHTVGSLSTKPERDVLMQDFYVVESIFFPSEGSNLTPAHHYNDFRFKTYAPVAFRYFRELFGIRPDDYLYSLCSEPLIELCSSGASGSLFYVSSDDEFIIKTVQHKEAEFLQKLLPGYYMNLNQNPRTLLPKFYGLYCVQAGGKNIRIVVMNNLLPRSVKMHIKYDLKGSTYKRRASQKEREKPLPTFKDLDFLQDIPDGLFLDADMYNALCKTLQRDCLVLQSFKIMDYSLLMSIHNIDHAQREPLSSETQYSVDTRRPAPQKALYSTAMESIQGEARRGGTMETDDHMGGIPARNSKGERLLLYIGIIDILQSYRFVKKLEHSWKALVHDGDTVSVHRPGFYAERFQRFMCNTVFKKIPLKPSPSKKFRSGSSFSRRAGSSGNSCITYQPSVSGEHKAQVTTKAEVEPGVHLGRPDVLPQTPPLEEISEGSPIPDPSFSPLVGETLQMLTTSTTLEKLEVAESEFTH

TRKC = TRKC (Homo sapiens (Human), UniProt Q16288); test: KINOMEscan; assay type: binding; conditions: 10000 nM, read-out: Percent Control
TRKC, sequence (Q16288 32-839): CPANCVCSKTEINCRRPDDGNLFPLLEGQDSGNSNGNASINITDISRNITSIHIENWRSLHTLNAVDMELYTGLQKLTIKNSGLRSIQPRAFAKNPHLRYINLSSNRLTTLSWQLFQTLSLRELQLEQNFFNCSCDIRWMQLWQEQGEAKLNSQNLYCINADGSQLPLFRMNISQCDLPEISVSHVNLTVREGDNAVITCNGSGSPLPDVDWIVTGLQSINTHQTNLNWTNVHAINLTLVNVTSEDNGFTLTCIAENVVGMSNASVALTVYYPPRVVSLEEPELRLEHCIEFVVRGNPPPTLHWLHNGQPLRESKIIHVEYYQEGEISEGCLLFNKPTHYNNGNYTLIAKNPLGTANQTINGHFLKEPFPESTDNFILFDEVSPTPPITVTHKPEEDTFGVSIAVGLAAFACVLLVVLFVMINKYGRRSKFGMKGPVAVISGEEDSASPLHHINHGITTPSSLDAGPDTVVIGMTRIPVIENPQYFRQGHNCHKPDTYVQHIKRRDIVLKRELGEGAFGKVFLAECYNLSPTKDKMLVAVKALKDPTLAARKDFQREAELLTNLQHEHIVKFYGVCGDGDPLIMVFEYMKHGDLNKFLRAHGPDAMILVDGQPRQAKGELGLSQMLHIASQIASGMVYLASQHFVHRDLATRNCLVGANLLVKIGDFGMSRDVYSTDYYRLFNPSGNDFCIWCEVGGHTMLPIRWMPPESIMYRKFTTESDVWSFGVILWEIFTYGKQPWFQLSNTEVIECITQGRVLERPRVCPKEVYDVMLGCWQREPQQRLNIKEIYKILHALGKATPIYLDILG

TYRO3 = TYRO3 (Homo sapiens (Human), UniProt Q06418); test: KINOMEscan; assay type: binding; conditions: TYRO3, 10000 nM; read-out: Percent Control
DCLK1 = DCLK1 (Homo sapiens (Human), UniProt O15075); test: Biochemical IC50 (Invitrogen) of off-targets
DCLK2 = DCLK2 (Homo sapiens (Human), UniProt Q8N568); test: Biochemical IC50 (Invitrogen) of off-targets
PLK1 = PLK1 (Homo sapiens (Human), UniProt P53350); test: Biochemical IC50 (Invitrogen) of off-targets
STK33 = STK33 (Homo sapiens (Human), UniProt Q9BYT3); test: Biochemical IC50 (Invitrogen) of off-targets
TNK1 = TNK1 (Homo sapiens (Human), UniProt Q13470); test: Biochemical IC50 (Invitrogen) of off-targets

SMILES	IC50 (MDA-MB-231 cells)	remaining binding at 10 µM (AAK1)	remaining binding at 10 µM (ALK(L1196M))	remaining binding at 10 µM (GCN2(Kin.Dom.2, S808G))	remaining binding at 10 µM (KIT(V559D, T670I))	remaining binding at 10 µM (LZK)	remaining binding at 10 µM (MET)	remaining binding at 10 µM (PIP5K1A)	remaining binding at 10 µM (TRKC)	remaining binding at 10 µM (TYRO3)	IC50 (DCLK1)	IC50 (DCLK2)	IC50 (PLK1)	IC50 (STK33)	IC50 (TNK1)
COc1cc(N2CCC(N3CCN(C)CC3)CC2)ccc1Nc1ncc2c(n1)N(C)c1sc(C)nc1C(=O)N2 [Compound 3, 6-((2-methoxy-4-(4-(4-methylpiperazin-1-yl)piperidin-1-yl)phenyl)amino)-2,4-dimethyl-4,9-dihydro-10H-pyrimido[5,4-b]thiazolo[5,4-e][1,4]diazepin-10-one]	6.8 µM	48%	80%	88%	86%	100%	92%	100%	100%	92%					
COc1cc(N2CCC(N3CCN(C)CC3)CC2)ccc1Nc1ncc2c(n1)N(C)c1sc(C)nc1C(=O)N2C [Compound 5, 6-((2-methoxy-4-(4-(4-methylpiperazin-1-yl)piperidin-1-yl)phenyl)amino)-2,4,9-trimethyl-4,9-dihydro-10H-pyrimido[5,4-b]thiazolo[5,4-e][1,4]diazepin-10-one]			79%	94%	95%	100%	97%	100%	100%	88%	6.5 µM	3.12 µM	8.28 µM	2.13 µM	3.17 µM
